Measurements from ChEMBL document CHEMBL4507287, “Data for DCP probe MRL-650” (2021).

Key:
Nociceptin receptor = Nociceptin receptor (Homo sapiens, UniProt P41146); test: GPCRScan assay: inhibition of NOP; set-up: radioligand conc. used [nm] 0.5 – 2.0, parental cells HEKT
Cannabinoid receptor 2 = Cannabinoid receptor 2 (Homo sapiens, UniProt P34972); test: Radioligand Binding Assay (CNR2)
[1] = test system: Tyrosine-protein kinase ABL1 (Homo sapiens), P00519 [F317I]; settings: Compound concentration 1000.0 nM
[2] = test system: Tyrosine-protein kinase ABL1 (Homo sapiens), P00519 [F317L]; settings: Compound concentration 1000.0 nM
[3] = test system: Tyrosine-protein kinase ABL1 (Homo sapiens), P00519 [H396P]; settings: Compound concentration 1000.0 nM
[4] = molecular target: Atypical kinase COQ8B, mitochondrial (Homo sapiens) (UniProt Q96D53); settings: Compound concentration 1000.0 nM
[5] = molecular target: Serine/threonine-protein kinase B-raf (Homo sapiens) (UniProt P15056); settings: Compound concentration 1000.0 nM
[6] = molecular target: Protein-tyrosine kinase 6 (Homo sapiens) (UniProt Q13882); settings: Compound concentration 1000.0 nM
[7] = molecular target: Calcium/calmodulin-dependent protein kinase type 1D (Homo sapiens) (UniProt Q8IU85); settings: Compound concentration 1000.0 nM
Chain of Calcium/calmodulin-dependent protein kinase type 1D (Homo sapiens) (Q8IU85 whole entry, looked up): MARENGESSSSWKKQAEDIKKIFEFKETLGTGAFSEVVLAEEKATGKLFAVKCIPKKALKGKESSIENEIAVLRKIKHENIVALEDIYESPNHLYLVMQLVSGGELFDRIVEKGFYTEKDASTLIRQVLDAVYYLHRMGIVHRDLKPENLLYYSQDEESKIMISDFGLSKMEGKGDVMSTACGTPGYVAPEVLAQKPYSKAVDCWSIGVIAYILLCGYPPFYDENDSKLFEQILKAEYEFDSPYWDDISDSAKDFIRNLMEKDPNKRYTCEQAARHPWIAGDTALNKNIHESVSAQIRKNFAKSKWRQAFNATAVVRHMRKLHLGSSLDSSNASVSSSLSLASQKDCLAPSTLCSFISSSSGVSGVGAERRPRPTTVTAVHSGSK

[8] = molecular target: Cyclin-dependent kinase 7 (Homo sapiens) (UniProt P50613); settings: Compound concentration 1000.0 nM
[9] = molecular target: Serine/threonine-protein kinase Chk2 (Homo sapiens) (UniProt O96017); settings: Compound concentration 1000.0 nM
[10] = molecular target: Casein kinase I isoform epsilon (Homo sapiens) (UniProt P49674); settings: Compound concentration 1000.0 nM
[11] = molecular target: Casein kinase I isoform gamma-1 (Homo sapiens) (UniProt Q9HCP0); settings: Compound concentration 1000.0 nM
[12] = molecular target: Dual specificity tyrosine-phosphorylation-regulated kinase 2 (Homo sapiens) (UniProt Q92630); settings: Compound concentration 1000.0 nM
[13] = test system: Epidermal growth factor receptor (Homo sapiens), P00533 [L858R]; settings: Compound concentration 1000.0 nM
[14] = molecular target: Receptor tyrosine-protein kinase erbB-4 (Homo sapiens) (UniProt Q15303); settings: Compound concentration 1000.0 nM
[15] = molecular target: Focal adhesion kinase 1 (Homo sapiens) (UniProt Q05397); settings: Compound concentration 1000.0 nM
[16] = test system: Receptor-type tyrosine-protein kinase FLT3 (Homo sapiens), P36888 [D835V]; settings: Compound concentration 1000.0 nM
[17] = test system: eIF-2-alpha kinase GCN2 (Homo sapiens), Q9P2K8 [S808G]; settings: Compound concentration 1000.0 nM
[18] = molecular target: Hormonally up-regulated neu tumor-associated kinase (Homo sapiens) (UniProt P57058); settings: Compound concentration 1000.0 nM
[19] = molecular target: Serine/threonine-protein kinase LATS2 (Homo sapiens) (UniProt Q9NRM7); settings: Compound concentration 1000.0 nM
Chain of Serine/threonine-protein kinase LATS2 (Homo sapiens) (Q9NRM7 whole entry): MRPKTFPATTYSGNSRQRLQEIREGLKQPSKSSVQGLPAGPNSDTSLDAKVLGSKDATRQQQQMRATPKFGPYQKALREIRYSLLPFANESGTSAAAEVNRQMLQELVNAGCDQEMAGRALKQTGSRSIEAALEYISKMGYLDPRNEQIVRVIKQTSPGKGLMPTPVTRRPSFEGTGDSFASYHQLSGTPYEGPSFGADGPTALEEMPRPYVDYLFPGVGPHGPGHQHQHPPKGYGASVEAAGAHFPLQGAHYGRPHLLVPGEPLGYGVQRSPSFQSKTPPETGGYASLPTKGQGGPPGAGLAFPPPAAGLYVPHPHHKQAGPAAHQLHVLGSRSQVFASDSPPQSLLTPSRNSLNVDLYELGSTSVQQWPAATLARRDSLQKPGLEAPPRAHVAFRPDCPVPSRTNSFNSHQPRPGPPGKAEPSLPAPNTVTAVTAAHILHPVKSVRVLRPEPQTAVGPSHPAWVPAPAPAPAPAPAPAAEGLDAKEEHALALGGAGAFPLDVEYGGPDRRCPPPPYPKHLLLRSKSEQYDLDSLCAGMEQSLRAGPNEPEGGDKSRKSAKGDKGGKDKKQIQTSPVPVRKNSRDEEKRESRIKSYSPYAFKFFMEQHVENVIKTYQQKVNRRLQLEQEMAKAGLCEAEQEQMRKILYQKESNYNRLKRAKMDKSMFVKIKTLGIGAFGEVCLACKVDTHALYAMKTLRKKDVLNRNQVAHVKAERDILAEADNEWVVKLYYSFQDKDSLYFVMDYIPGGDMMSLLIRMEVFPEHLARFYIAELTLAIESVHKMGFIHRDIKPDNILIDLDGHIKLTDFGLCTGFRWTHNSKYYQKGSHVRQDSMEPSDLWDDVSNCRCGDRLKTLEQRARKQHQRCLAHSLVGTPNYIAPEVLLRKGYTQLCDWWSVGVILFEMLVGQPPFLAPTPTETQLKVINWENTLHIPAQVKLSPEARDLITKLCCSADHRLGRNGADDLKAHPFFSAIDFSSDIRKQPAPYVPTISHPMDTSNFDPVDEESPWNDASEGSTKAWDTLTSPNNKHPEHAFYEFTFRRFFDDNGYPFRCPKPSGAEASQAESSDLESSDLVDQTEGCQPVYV

[20] = molecular target: Myosin light chain kinase (Homo sapiens) (UniProt Q32MK0); settings: Compound concentration 1000.0 nM
[21] = molecular target: Mitogen-activated protein kinase kinase kinase 10 (Homo sapiens) (UniProt Q02779); settings: Compound concentration 1000.0 nM
[22] = molecular target: Serine/threonine-protein kinase 3 (Homo sapiens) (UniProt Q13188); settings: Compound concentration 1000.0 nM
[23] = molecular target: Serine/threonine-protein kinase 26 (Homo sapiens) (UniProt Q9P289); settings: Compound concentration 1000.0 nM
[24] = molecular target: Serine/threonine-protein kinase PAK 1 (Homo sapiens) (UniProt Q13153); settings: Compound concentration 1000.0 nM
[25] = molecular target: Phosphorylase b kinase gamma catalytic chain, skeletal muscle/heart isoform (Homo sapiens) (UniProt Q16816); settings: Compound concentration 1000.0 nM
[26] = molecular target: Phosphatidylinositol 4-phosphate 3-kinase C2 domain-containing subunit beta (Homo sapiens) (UniProt O00750); settings: Compound concentration 1000.0 nM
[27] = molecular target: Phosphatidylinositol 4-phosphate 5-kinase type-1 gamma (Homo sapiens) (UniProt O60331); settings: Compound concentration 1000.0 nM
[28] = molecular target: Serine/threonine-protein kinase RIO3 (Homo sapiens) (UniProt O14730); settings: Compound concentration 1000.0 nM
[29] = molecular target: Receptor-interacting serine/threonine-protein kinase 1 (Homo sapiens) (UniProt Q13546); settings: Compound concentration 1000.0 nM
[30] = molecular target: Ribosomal protein S6 kinase alpha-4 (Homo sapiens) (UniProt O75676); settings: Compound concentration 1000.0 nM
[31] = molecular target: Ribosomal protein S6 kinase alpha-6 (Homo sapiens) (UniProt Q9UK32); settings: Compound concentration 1000.0 nM
[32] = molecular target: Uncharacterized serine/threonine-protein kinase SBK3 (Homo sapiens) (UniProt P0C264); settings: Compound concentration 1000.0 nM
[33] = molecular target: Serine/threonine-protein kinase 16 (Homo sapiens) (UniProt O75716); settings: Compound concentration 1000.0 nM
[34] = molecular target: Mitogen-activated protein kinase kinase kinase 7 (Homo sapiens) (UniProt O43318); settings: Compound concentration 1000.0 nM
[35] = molecular target: Serine/threonine-protein kinase TAO2 (Homo sapiens) (UniProt Q9UL54); settings: Compound concentration 1000.0 nM
[36] = molecular target: Tyrosine-protein kinase Tec (Homo sapiens) (UniProt P42680); settings: Compound concentration 1000.0 nM
Chain of Tyrosine-protein kinase Tec (Homo sapiens) (P42680 whole entry): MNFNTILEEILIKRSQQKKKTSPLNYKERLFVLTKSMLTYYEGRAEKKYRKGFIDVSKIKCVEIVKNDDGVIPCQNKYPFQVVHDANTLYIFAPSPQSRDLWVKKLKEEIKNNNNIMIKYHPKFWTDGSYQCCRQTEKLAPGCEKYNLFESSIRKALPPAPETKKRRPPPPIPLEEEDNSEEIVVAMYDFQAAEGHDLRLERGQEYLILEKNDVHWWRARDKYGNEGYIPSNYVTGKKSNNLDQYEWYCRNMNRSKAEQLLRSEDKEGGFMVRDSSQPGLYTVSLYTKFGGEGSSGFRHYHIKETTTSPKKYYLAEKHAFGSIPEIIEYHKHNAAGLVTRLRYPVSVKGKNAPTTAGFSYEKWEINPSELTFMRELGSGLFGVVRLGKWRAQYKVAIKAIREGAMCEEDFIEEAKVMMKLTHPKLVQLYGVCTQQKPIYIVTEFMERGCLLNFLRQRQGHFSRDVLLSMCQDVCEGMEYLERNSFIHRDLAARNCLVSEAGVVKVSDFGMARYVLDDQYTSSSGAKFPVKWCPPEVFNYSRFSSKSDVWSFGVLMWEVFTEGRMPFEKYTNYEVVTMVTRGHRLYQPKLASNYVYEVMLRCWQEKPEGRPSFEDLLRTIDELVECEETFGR

[37] = molecular target: Activated CDC42 kinase 1 (Homo sapiens) (UniProt Q07912); settings: Compound concentration 1000.0 nM
[38] = molecular target: Tyrosine-protein kinase TXK (Homo sapiens) (UniProt P42681); settings: Compound concentration 1000.0 nM
Chain of Tyrosine-protein kinase TXK (Homo sapiens) (P42681 whole entry): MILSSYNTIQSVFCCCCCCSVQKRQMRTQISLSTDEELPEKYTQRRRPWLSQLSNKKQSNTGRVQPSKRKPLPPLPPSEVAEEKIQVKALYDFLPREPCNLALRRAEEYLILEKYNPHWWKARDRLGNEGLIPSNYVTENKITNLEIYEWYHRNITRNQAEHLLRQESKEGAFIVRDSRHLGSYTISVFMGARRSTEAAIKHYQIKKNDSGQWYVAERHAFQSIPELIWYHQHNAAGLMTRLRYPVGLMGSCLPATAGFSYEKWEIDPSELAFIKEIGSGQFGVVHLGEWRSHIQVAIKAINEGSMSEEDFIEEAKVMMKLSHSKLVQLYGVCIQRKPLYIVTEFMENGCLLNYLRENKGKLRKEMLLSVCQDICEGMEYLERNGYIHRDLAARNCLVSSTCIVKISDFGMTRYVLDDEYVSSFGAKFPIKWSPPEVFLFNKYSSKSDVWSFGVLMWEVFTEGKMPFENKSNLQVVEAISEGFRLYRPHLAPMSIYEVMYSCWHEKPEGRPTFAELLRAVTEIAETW

[39] = molecular target: Non-receptor tyrosine-protein kinase TYK2 (Homo sapiens) (UniProt P29597); settings: Compound concentration 1000.0 nM
Chain of Non-receptor tyrosine-protein kinase TYK2 (Homo sapiens) (P29597 whole entry): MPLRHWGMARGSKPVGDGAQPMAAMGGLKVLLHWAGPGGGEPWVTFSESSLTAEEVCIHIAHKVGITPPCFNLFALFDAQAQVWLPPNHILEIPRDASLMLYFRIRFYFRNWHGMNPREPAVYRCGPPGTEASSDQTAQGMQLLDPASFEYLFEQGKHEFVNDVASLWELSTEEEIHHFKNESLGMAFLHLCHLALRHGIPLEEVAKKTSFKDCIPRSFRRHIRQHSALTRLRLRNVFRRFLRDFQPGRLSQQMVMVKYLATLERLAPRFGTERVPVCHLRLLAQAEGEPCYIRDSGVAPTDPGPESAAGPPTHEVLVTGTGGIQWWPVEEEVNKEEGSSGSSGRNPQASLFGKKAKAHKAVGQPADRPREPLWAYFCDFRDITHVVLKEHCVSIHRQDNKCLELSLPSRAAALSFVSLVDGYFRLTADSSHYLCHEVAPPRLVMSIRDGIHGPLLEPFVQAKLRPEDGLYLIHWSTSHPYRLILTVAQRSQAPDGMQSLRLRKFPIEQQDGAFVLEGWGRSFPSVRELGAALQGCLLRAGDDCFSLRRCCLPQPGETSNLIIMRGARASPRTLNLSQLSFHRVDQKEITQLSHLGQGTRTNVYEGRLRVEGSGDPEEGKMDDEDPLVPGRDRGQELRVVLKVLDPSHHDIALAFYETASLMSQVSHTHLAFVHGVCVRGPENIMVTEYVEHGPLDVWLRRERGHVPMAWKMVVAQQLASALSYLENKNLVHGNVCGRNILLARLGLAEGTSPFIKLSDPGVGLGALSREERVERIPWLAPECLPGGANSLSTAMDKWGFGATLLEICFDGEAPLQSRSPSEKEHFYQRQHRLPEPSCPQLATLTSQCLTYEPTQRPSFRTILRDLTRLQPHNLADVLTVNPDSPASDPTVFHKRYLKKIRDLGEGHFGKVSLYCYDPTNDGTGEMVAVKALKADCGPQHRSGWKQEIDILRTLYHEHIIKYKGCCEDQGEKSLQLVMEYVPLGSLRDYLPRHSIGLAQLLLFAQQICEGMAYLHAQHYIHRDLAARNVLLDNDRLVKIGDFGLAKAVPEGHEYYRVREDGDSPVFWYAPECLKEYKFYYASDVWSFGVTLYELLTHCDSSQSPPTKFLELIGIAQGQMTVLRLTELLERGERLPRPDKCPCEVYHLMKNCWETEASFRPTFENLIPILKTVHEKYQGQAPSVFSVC

[40] = molecular target: Tyrosine-protein kinase receptor TYRO3 (Homo sapiens) (UniProt Q06418); settings: Compound concentration 1000.0 nM
Chain of Tyrosine-protein kinase receptor TYRO3 (Homo sapiens) (Q06418 whole entry): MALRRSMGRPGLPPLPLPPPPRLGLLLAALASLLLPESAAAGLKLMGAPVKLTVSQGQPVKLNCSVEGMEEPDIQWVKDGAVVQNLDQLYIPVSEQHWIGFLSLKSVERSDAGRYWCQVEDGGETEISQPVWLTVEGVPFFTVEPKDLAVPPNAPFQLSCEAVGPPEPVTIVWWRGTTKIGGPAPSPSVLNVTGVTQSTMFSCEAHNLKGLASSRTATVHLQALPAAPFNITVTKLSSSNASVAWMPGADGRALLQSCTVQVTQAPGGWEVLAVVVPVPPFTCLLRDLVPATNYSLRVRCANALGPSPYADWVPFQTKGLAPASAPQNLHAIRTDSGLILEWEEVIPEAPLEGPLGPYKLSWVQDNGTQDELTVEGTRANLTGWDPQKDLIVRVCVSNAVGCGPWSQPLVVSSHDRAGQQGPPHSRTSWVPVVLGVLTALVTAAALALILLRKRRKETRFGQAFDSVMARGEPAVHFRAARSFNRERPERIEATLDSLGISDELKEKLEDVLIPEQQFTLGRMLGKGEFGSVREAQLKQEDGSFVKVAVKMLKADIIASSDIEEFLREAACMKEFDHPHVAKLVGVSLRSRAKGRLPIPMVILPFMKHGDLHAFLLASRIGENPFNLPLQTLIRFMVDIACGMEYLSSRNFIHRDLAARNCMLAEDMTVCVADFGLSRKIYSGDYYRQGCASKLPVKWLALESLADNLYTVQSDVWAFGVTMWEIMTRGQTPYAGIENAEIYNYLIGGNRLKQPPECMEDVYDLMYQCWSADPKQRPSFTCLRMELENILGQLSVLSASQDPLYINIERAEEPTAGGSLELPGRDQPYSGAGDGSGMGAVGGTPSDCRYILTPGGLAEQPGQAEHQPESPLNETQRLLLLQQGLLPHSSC

[41] = molecular target: Serine/threonine-protein kinase ULK1 (Homo sapiens) (UniProt O75385); settings: Compound concentration 1000.0 nM
[42] = molecular target: 5-hydroxytryptamine receptor 1D (Homo sapiens) (UniProt P28221); settings: Compound concentration 10.0 uM
[43] = molecular target: Alpha-1D adrenergic receptor (Homo sapiens) (UniProt P25100); settings: Compound concentration 10.0 uM

Chain of Nociceptin receptor (P41146 whole entry): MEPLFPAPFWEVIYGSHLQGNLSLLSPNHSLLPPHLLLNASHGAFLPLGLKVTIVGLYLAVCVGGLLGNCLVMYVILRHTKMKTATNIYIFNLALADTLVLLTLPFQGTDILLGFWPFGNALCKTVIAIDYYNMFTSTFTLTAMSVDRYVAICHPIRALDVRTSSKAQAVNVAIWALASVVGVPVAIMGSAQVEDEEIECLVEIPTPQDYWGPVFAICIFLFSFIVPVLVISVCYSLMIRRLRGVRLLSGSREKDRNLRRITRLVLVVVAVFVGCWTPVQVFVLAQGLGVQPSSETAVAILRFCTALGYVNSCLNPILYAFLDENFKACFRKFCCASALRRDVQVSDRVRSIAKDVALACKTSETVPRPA

For `CC(=O)Nc1c(C(C)=O)c(=O)n(C)c2nc(-c3ccc(Cl)cc3Cl)c(-c3ccc(Cl)cc3)cc12` [NAPHTHYRIDINONE], the Ki (Nociceptin receptor) was 10 µM, the pKi (Nociceptin receptor) was 5 and the IC50 (Cannabinoid receptor 2) was 4.63 µM (not active). It also gave a residual activity [1] of 94%, a residual activity [2] of 100% and a residual activity [3] of 100%. It also gave a residual activity [4] of 100%, a residual activity [5] of 100% and a residual activity [6] of 100%. For the same compound, the residual activity [7] was 100%, the residual activity [8] was 100% and the residual activity [9] was 100%. For the same compound, the residual activity [10] was 100%, the residual activity [11] was 100% and the residual activity [12] was 100%. It also gave a residual activity [13] of 100%, a residual activity [14] of 91% and a residual activity [15] of 100%. It also gave a residual activity [16] of 82%, a residual activity [17] of 48% and a residual activity [18] of 100%. For the same compound, the residual activity [19] was 100%, the residual activity [20] was 100% and the residual activity [21] was 100%. The residual activity [22] was 100%, the residual activity [23] was 87% and the residual activity [24] was 100%. For the same compound, the residual activity [25] was 100%, the residual activity [26] was 48% and the residual activity [27] was 100%. It also gave a residual activity [28] of 100%, a residual activity [29] of 100% and a residual activity [30] of 100%. It also gave a residual activity [31] of 88%, a residual activity [32] of 100% and a residual activity [33] of 100%. The residual activity [34] was 100%, the residual activity [35] was 88% and the residual activity [36] was 100%. It also gave a residual activity [37] of 100%, a residual activity [38] of 100% and a residual activity [39] of 100%. It also gave a residual activity [40] of 68%, a residual activity [41] of 66% and an inhibition [42] of 32.9%. The inhibition [43] was -3.09%.
For `CC(=O)c1c(NS(C)(=O)=O)c2cc(-c3ccc(Cl)cc3)c(-c3ccc(Cl)cc3Cl)nc2n(C)c1=O` [MRL-CB1-NC], the inhibition (Nociceptin receptor; Compound concentration 10.0 uM) was -2.4%, the Inverse agonism (Cannabinoid receptor 2) was 38.3% and the residual activity [1] was 85%. For the same compound, the residual activity [2] was 89%, the residual activity [3] was 100% and the residual activity [4] was 97%. It also gave a residual activity [5] of 90%, a residual activity [6] of 100% and a residual activity [7] of 100%. The residual activity [8] was 82%, the residual activity [9] was 100% and the residual activity [10] was 100%. For the same compound, the residual activity [11] was 92%, the residual activity [12] was 93% and the residual activity [13] was 98%. The residual activity [14] was 100%, the residual activity [15] was 100% and the residual activity [16] was 89%. For the same compound, the residual activity [17] was 100%, the residual activity [18] was 100% and the residual activity [19] was 78%. For the same compound, the residual activity [20] was 91%, the residual activity [21] was 99% and the residual activity [22] was 100%. The residual activity [23] was 84%, the residual activity [24] was 96% and the residual activity [25] was 94%. For the same compound, the residual activity [26] was 100%, the residual activity [27] was 100% and the residual activity [28] was 96%. It also gave a residual activity [29] of 97%, a residual activity [30] of 93% and a residual activity [31] of 76%. For the same compound, the residual activity [32] was 95%, the residual activity [33] was 100% and the residual activity [34] was 83%. It also gave a residual activity [35] of 97%, a residual activity [36] of 100% and a residual activity [37] of 92%. It also gave a residual activity [38] of 100%, a residual activity [39] of 94% and a residual activity [40] of 64%. It also gave a residual activity [41] of 67%, an inhibition [42] of 68.5% and an inhibition [43] of 15.9%.
